Experimental data taken from patent US20260109690A1, “HDAC6 INHIBITORS AND METHOD OF THEIR USE” (Baerenkraft Therapeutics, LLC., priority 2024, published 2026).
pIC50: −log10 of the molar value.

What was measured:
HDAC4 = HDAC4 (Homo sapiens, UniProt P56524); test: HDAC selectivity panel: HDAC4; format: biochemical
HDAC7 = target: T1, HDAC7 (Homo sapiens, UniProt Q8WUI4); test: HDAC selectivity panel: HDAC7; format: biochemical
T1 sequence (Q8WUI4 1-952): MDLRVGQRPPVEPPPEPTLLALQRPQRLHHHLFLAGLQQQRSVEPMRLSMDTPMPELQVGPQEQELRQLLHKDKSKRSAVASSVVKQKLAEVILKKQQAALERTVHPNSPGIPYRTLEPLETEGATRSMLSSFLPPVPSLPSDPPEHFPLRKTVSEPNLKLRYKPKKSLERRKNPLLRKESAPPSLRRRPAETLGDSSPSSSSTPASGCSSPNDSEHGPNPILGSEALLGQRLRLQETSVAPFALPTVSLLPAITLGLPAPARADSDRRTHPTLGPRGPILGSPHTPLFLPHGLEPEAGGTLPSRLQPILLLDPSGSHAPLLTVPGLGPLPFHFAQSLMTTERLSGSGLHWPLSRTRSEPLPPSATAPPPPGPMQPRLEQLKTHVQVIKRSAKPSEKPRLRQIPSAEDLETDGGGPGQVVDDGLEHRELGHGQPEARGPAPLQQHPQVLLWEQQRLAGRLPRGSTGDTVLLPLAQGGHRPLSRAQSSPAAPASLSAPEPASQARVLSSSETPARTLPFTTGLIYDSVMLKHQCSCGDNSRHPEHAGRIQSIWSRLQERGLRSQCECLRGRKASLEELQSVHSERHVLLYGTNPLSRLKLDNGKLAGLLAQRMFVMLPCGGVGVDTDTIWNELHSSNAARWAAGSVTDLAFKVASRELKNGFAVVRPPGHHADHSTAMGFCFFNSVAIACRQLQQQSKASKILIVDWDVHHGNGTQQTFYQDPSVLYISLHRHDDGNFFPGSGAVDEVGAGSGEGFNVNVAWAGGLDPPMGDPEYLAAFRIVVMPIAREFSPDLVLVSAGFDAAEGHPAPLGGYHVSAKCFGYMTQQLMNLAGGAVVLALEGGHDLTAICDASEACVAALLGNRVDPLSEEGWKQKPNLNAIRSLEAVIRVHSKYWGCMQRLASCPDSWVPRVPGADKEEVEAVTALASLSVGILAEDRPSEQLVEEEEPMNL

[1] = ALS mouse model: bioanalysis of plasma, brain and CSF; format: in vivo, mice; conditions: 4-hour timepoint, after week 16
Experimental: At 16 weeks (9+7-week behavioral assessment), animals were dosed either with the vehicle or test compound and 4 hours post dosing, CSF, blood, and brain were collected for bioanalysis. Muscles (tibialis, soleus and gastrocnemius) and spinal cord were collected for histology (optional).
After completion of week 16 (9+7-week behavioral assessment), animals were dosed with the vehicle or test compound. 4 hours post dosing, CSF and blood (retro-orbitally) were collected under mild isoflurane anesthesia. Blood was centrifuged at 5000 rpm for 10 minutes at 4° C. and separated plasma was utilized for plasma drug concentration analysis. Then animals were euthanized, and brain tissue was collected. CSF, plasma and brain tissue samples from G3 and G4 were prepared for bioanalysis and compounds were extracted, and the supernatant was injected for LC-MS/MS bioanalysis. Drug concentration of compound I-8 was calculated from respective calibration curve for G3 and G4.

Tg2576 AD Disease Mice [2] = test: Tg2576 study: Y-maze test; format: in vivo; conditions: for # of Spontaneous Alterations (Y-Maze) / % Spontaneous Alterations (Y-Maze): G3 Tg2576 mice
Experimental: (§1) Mice were weighed and randomized into groups. All the test formulations were freshly administered to respective animals of each group as per body weight. Basal behavior of the animals was recorded and analyzed in open field, Y-Maze, and EPM. Post basal behavior, animals were treated with compound I-16 for the duration of 3 months (i.e., from 6 months until 9 months). During the treatment duration, animals were subjected to different behavioral tests such as OFT, Y-maze, and EPM at 7, 8 and 9 months. At the end of experiments (i.e., at 9 months) animals were subjected to Morris water maze test.
To test spatial working memory, animals were subjected to spontaneous alteration test in Y-maze (Arm length—57 cm). During the test, the animal was placed at the end of one arm and allowed to explore the arena for a duration of 10 minutes. During the testing session, the number of entries in each arm were recorded and % alterations were calculated.
% Spontaneous alteration=(Spontaneous alteration/Total Arm entries−2)×100

Tg2576 AD Disease Mice [3] = test: Tg2576 study: Morris water maze test; format: in vivo; conditions: G3 Tg2576 mice, 50 mg/kg then 80 mg/kg from day 36 p.o.; 9th month, probe test
Experimental: as §1
Animals were subjected to MWM to test spatial working memory. Animals were subjected to habituation, acquisition, and probe trial phase. On day 0, animals were habituated to the Morris water maze tank filled with water for a duration of 90 seconds. During the acquisition phase from day 1 to 4, animals were allowed to swim or search the hidden platform for a duration of 60 seconds. Animals were subjected to a total of 4 trials from 4 different positions each day. On the day of the probe test, animals were allowed to swim for a duration of 60 seconds without platform and time spent in the target quadrant was recorded. During the acquisition phase, latency to reach the platform was calculated.

[4] = G4 50 mg/kg p.o. (30 mg/kg until day 33)
[5] = 50 mg/kg then 80 mg/kg from day 36 p.o., 8th months
[6] = 50 mg/kg then 80 mg/kg from day 36 p.o., 9th months
[7] = 6th months (Basal, before treatment)

HDAC4, sequence (P56524 whole entry, species assumed): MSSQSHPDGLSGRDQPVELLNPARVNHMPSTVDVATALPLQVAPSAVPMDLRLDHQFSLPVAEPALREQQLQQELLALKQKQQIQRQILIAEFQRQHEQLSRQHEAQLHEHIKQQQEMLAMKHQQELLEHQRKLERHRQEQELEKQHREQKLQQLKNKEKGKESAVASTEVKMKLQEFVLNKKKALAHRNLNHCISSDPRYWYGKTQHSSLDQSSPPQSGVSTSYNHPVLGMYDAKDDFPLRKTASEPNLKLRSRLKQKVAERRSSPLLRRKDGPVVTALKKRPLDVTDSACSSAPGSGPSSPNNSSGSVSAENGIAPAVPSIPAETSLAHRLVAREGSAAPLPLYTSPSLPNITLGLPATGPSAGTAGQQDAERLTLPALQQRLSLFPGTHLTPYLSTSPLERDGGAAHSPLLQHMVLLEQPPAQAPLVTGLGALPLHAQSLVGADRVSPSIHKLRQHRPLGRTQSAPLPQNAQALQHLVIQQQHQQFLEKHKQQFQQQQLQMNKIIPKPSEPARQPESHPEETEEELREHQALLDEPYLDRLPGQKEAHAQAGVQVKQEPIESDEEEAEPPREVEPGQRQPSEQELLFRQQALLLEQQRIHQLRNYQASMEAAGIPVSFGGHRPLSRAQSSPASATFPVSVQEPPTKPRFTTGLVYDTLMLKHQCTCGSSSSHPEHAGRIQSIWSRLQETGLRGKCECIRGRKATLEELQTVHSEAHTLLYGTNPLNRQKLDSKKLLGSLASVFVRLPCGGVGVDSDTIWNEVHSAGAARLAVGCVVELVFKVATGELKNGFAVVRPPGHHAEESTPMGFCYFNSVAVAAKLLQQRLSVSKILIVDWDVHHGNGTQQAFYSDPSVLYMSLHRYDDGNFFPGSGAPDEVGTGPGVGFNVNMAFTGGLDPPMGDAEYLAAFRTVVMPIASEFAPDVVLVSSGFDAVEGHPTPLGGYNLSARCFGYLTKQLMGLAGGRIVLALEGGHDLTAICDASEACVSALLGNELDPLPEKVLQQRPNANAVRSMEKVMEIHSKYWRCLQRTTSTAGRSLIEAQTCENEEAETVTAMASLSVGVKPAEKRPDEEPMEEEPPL

For `CC1CN(Cc2ccc(Nc3nccc(-c4ccc(C(=O)NO)cc4)n3)cc2F)CCO1` (racemic) [Compound I-8, 4-(2-((3-fluoro-4-((2-methylmorpholino)methyl)phenyl)amino)pyrimidin-4-yl)-N-hydroxybenzamide], the pIC50 (HDAC4) was 4.96, the pIC50 (HDAC7) was 4.91 and the “Brain drug concentration (Mean)” value ([1]; G3 15 mg/kg p.o.) was 2.34. The “Plasma drug concentration (Mean)” value ([1]; G3 15 mg/kg p.o.) was 12.35, the “Brain drug concentration (Mean)” value [1, 4] was 3.87 and the “CSF drug concentration (Mean)” value [1, 4] was 2.70. For the same compound, the “Plasma drug concentration (Mean)” value [1, 4] was 136.15.
In the case of `C[C@@H]1CN(Cc2ccc(Nc3nccc(-c4ccc(C(=O)NO)cc4)n3)cc2F)CCO1` [Compound I-16, (R)-4-(2-((3-fluoro-4-((2-methylmorpholino)methyl)phenyl)amino)pyrimidin-4-yl)-N-hydroxybenzamide], the “Y Maze: number of spontaneous alterations compared to G2 (Tg2576 + vehicle)” value (Tg2576 AD Disease Mice [2]; G3 Tg2576 AD disease mice, 50 mg/kg) was “did not show any significant difference”, the “# of Spontaneous Alterations (Y-Maze)” value (Tg2576 AD Disease Mice [2]; 50 mg/kg p.o., 7th months) was 18.70 ± 6.96 and the “% Spontaneous Alterations (Y-Maze)” value (Tg2576 AD Disease Mice [2]; 50 mg/kg p.o., 7th months) was 57.59 ± 3.85%. For the same compound, the “# of Spontaneous Alterations (Y-Maze)” value (Tg2576 AD Disease Mice [2]; [5]) was 16.00 ± 2.59, the “% Spontaneous Alterations (Y-Maze)” value (Tg2576 AD Disease Mice [2]; [5]) was 41.65 ± 5.52% and the “# of Spontaneous Alterations (Y-Maze)” value (Tg2576 AD Disease Mice [2]; [6]) was 16.00 ± 2.48. The “% Spontaneous Alterations (Y-Maze)” value (Tg2576 AD Disease Mice [2]; [6]) was 43.66 ± 4.55%, the “# of Spontaneous Alterations (Y-Maze)” value (Tg2576 AD Disease Mice [2]; [7]) was 25.00 ± 5.19 and the “% Spontaneous Alterations (Y-Maze)” value (Tg2576 AD Disease Mice [2]; [7]) was 53.60 ± 3.25%. The “Morris Water Maze time spent in NW (Target Quadrant)” value (Tg2576 AD Disease Mice [3]) was 15.49 ± 1.80 s.
